Common to all, as to format: cell-based
The subject of assay [1] is Pseudomonas aeruginosa (PAO1). Put plainly: Plate based assay, planktonic growth (OD600). The conditions noted are these: dilutions 0.010% to 10.000%. The protocol:
(§1) The anti-bacterial properties of ascorbic acid were evaluated by testing the effect of dilutions of the material on both biofilm and planktonic growth forms of a Pseudomonas aeruginosa isolate that was obtained from patients with cystic fibrosis. Pseudomonas aeruginosa is a common pathogen isolated from the sinuses of patients with chronic rhinosinusitis. The results of this evaluation as shown graphically in FIG. 1.
(§2) Known concentrations of the bacteria were placed in the 96 well culture plates. Dilutions of ascorbic acid (0% (Control), 0.010%, 0.033%, 0.100%, 0.330%, 1.000%, 3.330%, and 10.000%) were added to predetermined wells. […] The bacterial growth was measured both on the pegs as a biofilm and in the wells as planktonic cells.
(§3) More specifically, both bacterial planktonic and biofilm growth were determined using a modification of the plate based assay described by “Moskowitz et al. (Moskowitz S M, Foster J M, Emerson J, et al. Clinically feasible biofilm susceptibility for isolates of Pseudomonas aeruginosa from patients with cystic fibrosis. J. Clin. Microbiol. 2004, 42: 1915-1922). […] The original culture plate was read at OD600 to determine planktonic growth. […] The lid containing the pegs was then removed from the eluted crystal violet and read at 595 nm using a plate reader (Microplate Reader 680, Bio-Rad Hercules, Calif.). […]

The test system of assay [2] is human sinonasal mucosa cilia. Put plainly: Cilia beat frequency (CBF) in human sinonasal mucosa explants. The source says:
[…] were subjected to concentrations of the nasal spray solution to test the effect of the product on the cilia beat frequency (CBF). The samples were microscopically visualized and the images captured at a rate of 250 frames per second using digital image sampling. The samples were first visualized for two to three seconds every minute for five minutes to establish a baseline Cilia Beating Rate. The samples were then subjected to dilutions of the formulation and the effect on the beating rate was measured by comparing this rate to the baseline rate. The results of the measured CBF are seen in FIG. 2.
More specifically, using a dual temperature controlled perfusion chamber, differential interference contrast microscopy, and high speed digital video, epithelial ciliary function was analyzed as described previously (Schipor I, Palmer I N, Cohen A S, Cohen N A. Quantification of ciliary beat frequency in sinonasal epithelial cells using differential interference contrast microscopy and high speed digital video imaging. Am J Rhino 12006; 20: 124-7). Residual human sinonasal mucosa from surgery was placed in ice cold Locke Ringer's solution [136 mM Nacl, 5.6 mM KCI, 10 mM HEPES, 14.3 mM NaHCO, 1.2 mM MgCl2, 2.2 mM CaCl2 and 11.5 mM dextrose, pH 7.35] for transport. Explants were placed in a glass perfusion chamber on a thermostatically controlled stage and held in place with a nylon grid (1.5 mm) whose outer frame is snapped into the inside of the perfusion chamber. The stage and perfusate were maintained at a temperature between 35.5° C. and 37° C. with a dual channel heater (Warner Inst., Hamden Conn.). […]
Images were visualized using a Leica DMLFSA microscope set on an air table (TMC, Peabody, Mass.) using a water immersion 63× objective and differential interference contrast (DIC) optics (Leica Microsystems, Inc., Bannockburn, Ill.). […] A two to three second video was recorded every minute for 5 minutes to establish a baseline frequency. […] The video images were written to a PCI 2.2 board and then analyzed using Midas Professional Analyst video imaging processing software (XCitex, Cambridge, Mass.).
Beating cilia were analyzed using the 1-D line tracking algorithm included in the motion analysis software. […] The software captured the motion history within the analysis grid for the duration of the video and recorded the gray scale intensity variation as a function of time. […] The frequency was calculated as the inverse of the peak-to-peak distance of this waveform. For each sample, at least three areas of beating cilia within the same field were analyzed and the reported frequencies represent the arithmetic means of these values. […]

The test system of assay [3] is Pseudomonas aeruginosa (PAO1) biofilm. As to the kind of experiment: Peg-lid biofilm formation assay (crystal violet, 595 nm). The conditions noted are these: dilutions 0.010% to 10.000%. How it is done: as §1, §2, §3

Each structure is given as a SMILES string.

With `O=C1O[C@H]([C@@H](O)CO)C(O)=C1O` [ascorbate, ascorbic acid], the “inhibition of planktonic form (in words)” value in assay [1] was “dose dependent inhibition”. The “sinonasal CBF with increasing concentration (in words)” value in assay [2] (0.01% to 0.1%) is “increasing trend”. Moreover, the “increase in CBF” value in assay [2] (0.1% ascorbate vs control) came to 13.5%. Moreover, the “increase in mucous transport” value in assay [2] (0.1% ascorbate, extrapolated from CBF increase) was around 50%. Also, the CBF in assay [2] (0.1% ascorbate, control 11.8 Hz) is on record as 1304 Hz. Besides, in assay [3], the “inhibition of biofilm form (in words)” value is on record as “dose dependent inhibition”.
